In ChEMBL document CHEMBL5244269, “Improving metabolic stability and removing aldehyde oxidase liability in a 5-azaquinazoline series of IRAK4 inhibitors” (Bioorg Med Chem, 2020):

Assays:
[1] = target: T1, Interleukin-1 receptor-associated kinase 4 (Homo sapiens, UniProt Q9NWZ3); assay: Inhibition of IRAK4 (unknown origin) phosphorylation by cell based assay
T1 sequence (Q9NWZ3 whole entry): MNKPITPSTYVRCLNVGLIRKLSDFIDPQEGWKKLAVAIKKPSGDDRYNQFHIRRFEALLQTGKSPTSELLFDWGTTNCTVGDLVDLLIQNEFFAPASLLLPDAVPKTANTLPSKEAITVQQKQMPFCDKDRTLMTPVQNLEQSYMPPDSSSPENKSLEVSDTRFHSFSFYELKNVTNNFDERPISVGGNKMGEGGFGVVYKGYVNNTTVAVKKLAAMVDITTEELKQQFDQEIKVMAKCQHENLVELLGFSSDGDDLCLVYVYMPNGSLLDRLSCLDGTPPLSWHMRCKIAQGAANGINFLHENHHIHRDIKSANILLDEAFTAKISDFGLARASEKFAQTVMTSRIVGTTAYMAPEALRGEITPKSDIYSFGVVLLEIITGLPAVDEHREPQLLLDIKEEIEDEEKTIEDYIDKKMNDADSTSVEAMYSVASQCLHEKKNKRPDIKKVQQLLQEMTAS

[2] = target: Interleukin-1 receptor-associated kinase 1 (Homo sapiens, UniProt P51617); assay: Inhibition of IRAK1 (unknown origin) in presence of 25 uM ATP
[3] = target: High affinity nerve growth factor receptor (Homo sapiens, UniProt P04629); assay: Inhibition of TRKA (unknown origin) in presence of 400 uM ATP
Homo sapiens [4] = organism: Homo sapiens; assay: Selectivity index, ratio of IC50 for inhibition of FLT3 (unknown origin) to IC50 for inhibition of IRAK4 (unknown origin)
[5] = target: T2, Phosphatidylinositol 4,5-bisphosphate 3-kinase catalytic subunit delta isoform (Homo sapiens, UniProt O00329); assay: Inhibition of PI3Kdelta (unknown origin) in presence of […] uM ATP
T2 sequence (O00329 whole entry): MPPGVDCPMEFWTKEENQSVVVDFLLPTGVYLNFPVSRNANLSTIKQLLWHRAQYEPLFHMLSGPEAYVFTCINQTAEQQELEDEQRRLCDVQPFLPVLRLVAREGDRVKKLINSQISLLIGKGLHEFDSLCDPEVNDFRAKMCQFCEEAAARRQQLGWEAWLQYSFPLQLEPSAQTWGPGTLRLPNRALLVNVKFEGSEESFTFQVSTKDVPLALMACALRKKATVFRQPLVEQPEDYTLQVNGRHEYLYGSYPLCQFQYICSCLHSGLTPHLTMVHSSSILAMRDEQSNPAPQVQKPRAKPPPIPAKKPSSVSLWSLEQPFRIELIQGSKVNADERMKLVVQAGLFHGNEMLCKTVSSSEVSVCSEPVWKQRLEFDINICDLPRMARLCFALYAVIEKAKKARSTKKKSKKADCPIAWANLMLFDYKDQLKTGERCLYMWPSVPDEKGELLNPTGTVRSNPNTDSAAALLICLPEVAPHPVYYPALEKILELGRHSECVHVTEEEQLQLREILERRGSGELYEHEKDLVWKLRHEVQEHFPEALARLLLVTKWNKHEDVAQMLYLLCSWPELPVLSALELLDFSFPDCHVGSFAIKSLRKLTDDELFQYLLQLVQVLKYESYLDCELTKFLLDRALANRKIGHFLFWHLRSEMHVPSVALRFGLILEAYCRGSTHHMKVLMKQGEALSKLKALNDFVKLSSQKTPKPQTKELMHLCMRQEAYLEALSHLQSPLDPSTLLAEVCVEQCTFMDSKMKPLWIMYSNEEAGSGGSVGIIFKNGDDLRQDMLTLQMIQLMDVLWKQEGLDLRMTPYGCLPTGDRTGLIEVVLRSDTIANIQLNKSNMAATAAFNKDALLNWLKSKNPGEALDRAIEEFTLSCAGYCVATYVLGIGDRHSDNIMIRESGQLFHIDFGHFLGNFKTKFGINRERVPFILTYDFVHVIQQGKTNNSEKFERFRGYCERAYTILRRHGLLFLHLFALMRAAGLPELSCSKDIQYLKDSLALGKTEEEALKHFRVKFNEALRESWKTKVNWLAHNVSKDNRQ

[6] = target: Tyrosine-protein kinase BTK (Homo sapiens, UniProt Q06187); assay: Inhibition of BTK (unknown origin) in presence of 25 uM ATP
Homo sapiens [7] = organism: Homo sapiens; assay: Selectivity index, ratio of IC50 for inhibition of BTK (unknown origin) to IC50 for inhibition of IRAK4 (unknown origin)
Homo sapiens [8] = organism: Homo sapiens; assay: Selectivity index, ratio of IC50 for inhibition of TRKA (unknown origin) to IC50 for inhibition of IRAK4 (unknown origin)
[9] = Metabolic stability in human cytosol assessed as intrinsic clearance; assay type: ADME, subcellular
Homo sapiens [10] = organism: Homo sapiens; assay: Selectivity index, ratio of IC50 for inhibition of TRKB (unknown origin) to IC50 for inhibition of IRAK4 (unknown origin)
[11] = Metabolic stability in human liver microsomes assessed as intrinsic clearance; assay type: ADME, Microsome; conditions: read-out: CLH
[12] = target: NT-3 growth factor receptor (Homo sapiens, UniProt Q16288); assay: Inhibition of TRKC (unknown origin) in presence of 50 uM ATP
[13] = Lipophilicity, LogD at pH 7.4 of the compound by shake flask method; assay type: physicochemical; conditions: buffer
Homo sapiens [14] = organism: Homo sapiens; assay: Selectivity index, ratio of IC50 for inhibition of TRKC (unknown origin) to IC50 for inhibition of IRAK4 (unknown origin)
[15] = target: T3, Receptor-type tyrosine-protein kinase FLT3 (Homo sapiens, UniProt P36888); assay: Inhibition of FLT3 (unknown origin) in presence of 600 uM ATP
T3 sequence (P36888 whole entry): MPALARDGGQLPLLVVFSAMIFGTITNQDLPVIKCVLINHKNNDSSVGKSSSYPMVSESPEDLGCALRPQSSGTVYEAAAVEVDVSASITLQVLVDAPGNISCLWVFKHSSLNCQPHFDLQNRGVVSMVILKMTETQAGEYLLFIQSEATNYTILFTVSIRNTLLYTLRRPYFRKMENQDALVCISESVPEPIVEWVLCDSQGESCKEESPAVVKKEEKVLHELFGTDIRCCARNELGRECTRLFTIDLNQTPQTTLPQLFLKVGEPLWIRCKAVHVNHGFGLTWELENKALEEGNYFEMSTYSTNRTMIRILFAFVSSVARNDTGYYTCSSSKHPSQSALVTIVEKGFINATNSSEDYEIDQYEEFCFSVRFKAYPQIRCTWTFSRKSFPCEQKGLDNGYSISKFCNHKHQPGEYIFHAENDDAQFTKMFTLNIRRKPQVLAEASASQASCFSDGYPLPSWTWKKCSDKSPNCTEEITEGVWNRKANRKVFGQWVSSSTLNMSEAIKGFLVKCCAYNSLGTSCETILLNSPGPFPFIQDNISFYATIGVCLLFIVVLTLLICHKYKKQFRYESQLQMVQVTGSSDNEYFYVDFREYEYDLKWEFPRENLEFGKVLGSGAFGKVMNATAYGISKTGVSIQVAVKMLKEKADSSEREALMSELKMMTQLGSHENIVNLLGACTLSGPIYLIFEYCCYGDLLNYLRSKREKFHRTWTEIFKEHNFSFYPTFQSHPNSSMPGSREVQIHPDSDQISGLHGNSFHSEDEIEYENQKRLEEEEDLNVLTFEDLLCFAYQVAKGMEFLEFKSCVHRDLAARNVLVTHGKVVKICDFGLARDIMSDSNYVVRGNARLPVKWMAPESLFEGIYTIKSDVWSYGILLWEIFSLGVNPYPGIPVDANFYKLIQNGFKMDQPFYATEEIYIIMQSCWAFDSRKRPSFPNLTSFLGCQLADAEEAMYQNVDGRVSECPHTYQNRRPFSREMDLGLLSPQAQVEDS

[16] = Metabolic stability in human hepatocytes assessed as intrinsic clearance measured per 10^6 cells; assay type: ADME, cell-based, Hepatocyte; conditions: read-out: CLH
Homo sapiens [17] = organism: Homo sapiens; assay: Selectivity index, ratio of IC50 for inhibition of IRAK1 (unknown origin) to IC50 for inhibition of IRAK4 (unknown origin)
[18] = target: BDNF/NT-3 growth factors receptor (Homo sapiens, UniProt Q16620); assay: Inhibition of TRKB (unknown origin) in presence of 25 uM ATP
Homo sapiens [19] = organism: Homo sapiens; assay: Selectivity index, ratio of IC50 for inhibition of PI3Kdelta (unknown origin) to IC50 for inhibition of IRAK4 (unknown origin)
[20] = target: T1, Interleukin-1 receptor-associated kinase 4; assay: Inhibition of IRAK4 (unknown origin) in presence of ATP by enzymatic assay

Sequence of Interleukin-1 receptor-associated kinase 1 (P51617 whole entry): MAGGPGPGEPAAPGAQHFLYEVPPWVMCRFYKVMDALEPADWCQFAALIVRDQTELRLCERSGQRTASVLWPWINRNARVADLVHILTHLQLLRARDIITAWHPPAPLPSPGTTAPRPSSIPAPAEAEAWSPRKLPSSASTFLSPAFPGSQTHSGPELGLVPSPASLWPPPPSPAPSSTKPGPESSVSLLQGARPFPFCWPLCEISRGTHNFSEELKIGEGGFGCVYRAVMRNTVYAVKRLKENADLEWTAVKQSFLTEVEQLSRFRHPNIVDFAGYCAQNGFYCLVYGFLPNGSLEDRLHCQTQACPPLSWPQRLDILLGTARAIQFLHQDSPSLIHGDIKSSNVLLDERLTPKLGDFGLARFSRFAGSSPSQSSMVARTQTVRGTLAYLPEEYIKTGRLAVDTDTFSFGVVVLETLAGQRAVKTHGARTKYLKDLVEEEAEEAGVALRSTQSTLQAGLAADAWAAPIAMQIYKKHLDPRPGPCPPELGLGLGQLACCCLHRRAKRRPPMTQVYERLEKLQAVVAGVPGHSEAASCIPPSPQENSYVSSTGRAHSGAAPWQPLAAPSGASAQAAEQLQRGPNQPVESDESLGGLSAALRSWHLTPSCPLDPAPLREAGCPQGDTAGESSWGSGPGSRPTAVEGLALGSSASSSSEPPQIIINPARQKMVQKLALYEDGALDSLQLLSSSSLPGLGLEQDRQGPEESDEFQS
Sequence of BDNF/NT-3 growth factors receptor (Q16620 whole entry): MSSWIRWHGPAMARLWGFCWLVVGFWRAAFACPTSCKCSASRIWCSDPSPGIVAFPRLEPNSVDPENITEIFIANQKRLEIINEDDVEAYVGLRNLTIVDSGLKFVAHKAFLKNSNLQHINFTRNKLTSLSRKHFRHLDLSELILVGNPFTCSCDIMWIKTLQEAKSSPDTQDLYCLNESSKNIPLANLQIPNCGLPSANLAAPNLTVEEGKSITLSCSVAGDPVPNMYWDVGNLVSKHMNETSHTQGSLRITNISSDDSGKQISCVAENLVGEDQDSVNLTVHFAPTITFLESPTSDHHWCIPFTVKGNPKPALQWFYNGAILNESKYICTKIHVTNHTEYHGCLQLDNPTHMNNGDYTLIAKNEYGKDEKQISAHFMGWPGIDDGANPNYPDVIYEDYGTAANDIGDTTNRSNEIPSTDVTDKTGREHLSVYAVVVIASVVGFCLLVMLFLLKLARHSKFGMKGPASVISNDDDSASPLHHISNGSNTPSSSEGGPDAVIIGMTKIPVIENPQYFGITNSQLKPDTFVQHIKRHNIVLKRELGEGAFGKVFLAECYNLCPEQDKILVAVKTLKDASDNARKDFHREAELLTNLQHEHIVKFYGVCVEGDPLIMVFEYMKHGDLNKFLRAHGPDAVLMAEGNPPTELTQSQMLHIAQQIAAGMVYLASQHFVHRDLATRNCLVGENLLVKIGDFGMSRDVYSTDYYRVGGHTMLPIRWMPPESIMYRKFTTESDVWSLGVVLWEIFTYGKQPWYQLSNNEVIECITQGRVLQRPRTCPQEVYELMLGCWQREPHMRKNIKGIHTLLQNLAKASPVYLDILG
Sequence of High affinity nerve growth factor receptor (P04629 whole entry): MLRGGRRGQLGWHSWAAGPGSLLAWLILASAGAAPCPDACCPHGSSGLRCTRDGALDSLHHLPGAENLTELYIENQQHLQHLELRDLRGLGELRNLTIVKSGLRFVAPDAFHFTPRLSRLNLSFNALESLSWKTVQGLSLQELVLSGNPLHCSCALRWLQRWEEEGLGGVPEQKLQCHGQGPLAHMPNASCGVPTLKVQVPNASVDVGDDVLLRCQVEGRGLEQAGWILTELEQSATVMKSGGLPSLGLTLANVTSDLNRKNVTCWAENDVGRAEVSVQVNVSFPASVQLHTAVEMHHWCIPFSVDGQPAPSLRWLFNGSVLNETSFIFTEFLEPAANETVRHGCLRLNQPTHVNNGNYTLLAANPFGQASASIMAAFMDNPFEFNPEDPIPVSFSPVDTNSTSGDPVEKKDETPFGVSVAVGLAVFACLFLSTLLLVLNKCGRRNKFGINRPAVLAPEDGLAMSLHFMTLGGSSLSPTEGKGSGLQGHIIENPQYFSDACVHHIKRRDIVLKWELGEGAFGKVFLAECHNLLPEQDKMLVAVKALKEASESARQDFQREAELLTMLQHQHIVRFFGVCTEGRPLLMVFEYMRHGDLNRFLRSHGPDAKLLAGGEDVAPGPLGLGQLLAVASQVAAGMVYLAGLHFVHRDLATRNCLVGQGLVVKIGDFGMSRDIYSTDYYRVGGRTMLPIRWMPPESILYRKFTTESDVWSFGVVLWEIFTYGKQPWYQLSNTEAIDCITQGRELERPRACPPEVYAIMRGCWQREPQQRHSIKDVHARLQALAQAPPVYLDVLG
Sequence of Tyrosine-protein kinase BTK (Q06187 whole entry): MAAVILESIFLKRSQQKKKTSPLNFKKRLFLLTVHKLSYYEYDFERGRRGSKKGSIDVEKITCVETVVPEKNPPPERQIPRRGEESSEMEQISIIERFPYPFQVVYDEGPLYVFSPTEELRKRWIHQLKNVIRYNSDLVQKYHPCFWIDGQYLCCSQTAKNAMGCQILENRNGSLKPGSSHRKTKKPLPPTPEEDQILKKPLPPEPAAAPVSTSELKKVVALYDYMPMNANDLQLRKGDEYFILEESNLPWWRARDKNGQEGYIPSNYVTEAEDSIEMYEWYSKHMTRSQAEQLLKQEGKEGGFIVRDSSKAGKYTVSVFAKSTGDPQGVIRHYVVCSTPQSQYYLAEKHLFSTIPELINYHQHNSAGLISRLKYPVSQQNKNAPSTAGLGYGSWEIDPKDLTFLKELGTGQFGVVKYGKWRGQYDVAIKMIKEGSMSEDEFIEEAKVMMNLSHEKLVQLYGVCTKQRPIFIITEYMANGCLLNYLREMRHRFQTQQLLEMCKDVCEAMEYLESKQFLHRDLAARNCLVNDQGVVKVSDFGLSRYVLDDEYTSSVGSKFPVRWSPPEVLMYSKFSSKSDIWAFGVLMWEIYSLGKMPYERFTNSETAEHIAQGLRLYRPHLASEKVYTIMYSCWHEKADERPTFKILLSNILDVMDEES
Sequence of NT-3 growth factor receptor (Q16288 whole entry): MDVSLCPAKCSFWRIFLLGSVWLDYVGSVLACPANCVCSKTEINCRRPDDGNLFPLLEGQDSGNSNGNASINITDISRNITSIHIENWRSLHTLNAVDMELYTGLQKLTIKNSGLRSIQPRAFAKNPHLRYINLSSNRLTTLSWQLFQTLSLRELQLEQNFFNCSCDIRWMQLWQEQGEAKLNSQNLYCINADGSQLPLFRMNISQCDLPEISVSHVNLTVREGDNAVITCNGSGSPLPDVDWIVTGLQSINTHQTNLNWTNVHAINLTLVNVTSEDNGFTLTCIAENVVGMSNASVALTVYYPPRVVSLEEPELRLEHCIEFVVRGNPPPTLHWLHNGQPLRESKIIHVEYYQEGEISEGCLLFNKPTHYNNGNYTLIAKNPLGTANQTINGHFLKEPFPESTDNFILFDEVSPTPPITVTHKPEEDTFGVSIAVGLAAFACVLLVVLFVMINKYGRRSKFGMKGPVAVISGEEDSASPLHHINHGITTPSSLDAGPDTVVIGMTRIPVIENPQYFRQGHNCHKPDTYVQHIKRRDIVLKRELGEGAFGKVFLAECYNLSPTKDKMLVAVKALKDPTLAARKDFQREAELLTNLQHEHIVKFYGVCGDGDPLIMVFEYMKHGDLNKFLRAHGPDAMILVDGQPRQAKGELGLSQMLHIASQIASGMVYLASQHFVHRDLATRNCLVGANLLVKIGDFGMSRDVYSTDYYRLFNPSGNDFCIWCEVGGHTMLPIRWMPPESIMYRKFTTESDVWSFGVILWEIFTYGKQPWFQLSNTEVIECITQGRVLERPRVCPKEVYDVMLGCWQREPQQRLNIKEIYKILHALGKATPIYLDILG

Question: Which IC50 [1] does the source give for `CN1CCC(n2cc(Nc3nc(OC4(C)CC4)c4nc(-c5cncnc5)ccc4n3)cn2)CC1` here?
Answer: Its IC50 is 24 nM.

Question: And the IC50 [2]?
Answer: The IC50 was 2 nM.

Question: And the IC50 [3]?
Answer: Its IC50 is 19 nM.

Question: And the Ratio IC50 (Homo sapiens [4])?
Answer: Its Ratio IC50 is > 1000.

Question: And the IC50 [5]?
Answer: Its IC50 is 18 nM.

Question: And the IC50 [6]?
Answer: Its IC50 is 44 nM.

Question: And the Ratio IC50 (Homo sapiens [7])?
Answer: The Ratio IC50 was 70.

Question: And the Ratio IC50 (Homo sapiens [8])?
Answer: The Ratio IC50 was 32.

Question: And the microsomal CLint [9]?
Answer: Its microsomal CLint is 191 µL/min/mg.

Question: And the Ratio IC50 (Homo sapiens [10])?
Answer: Its Ratio IC50 is 140.

Question: And the microsomal CLint [11]?
Answer: Its microsomal CLint is 96 µL/min/mg.

Question: And the IC50 [12]?
Answer: The IC50 was 36 nM.

Question: What about the logD [13] of the same compound?
Answer: Its logD is 2.

Question: And the Ratio IC50 (Homo sapiens [14])?
Answer: Its Ratio IC50 is 60.

Question: What about the IC50 [15] of the same compound?
Answer: Its IC50 is 1200 nM.

Question: And the hepatocyte CLint [16]?
Answer: Its hepatocyte CLint is 110 µL/min/1e6 cells.

Question: And the Ratio IC50 (Homo sapiens [17])?
Answer: The Ratio IC50 was 3.

Question: And the IC50 [18]?
Answer: Its IC50 is 82 nM.

Question: And the Ratio IC50 (Homo sapiens [19])?
Answer: The Ratio IC50 was 30.

Question: What about the IC50 [20] of the same compound?
Answer: Its IC50 is 0.6 nM.
